One assay deals with phospho-Akt (Ser473). Nature of the assay: Cellular PI3K/Akt pathway assay (phospho-Akt ELISA). Format: cell-based. The settings on record: Homo sapiens, MCF7 cells, β-Heregulin stimulated, 48 h incubation. An excerpt:
Cellular PI3K/Akt Pathway Assay
In order to study the cellular activity of the compounds according to the present invention, an Enzyme Linked Immunosorbent Assay (ELISA)-based assay has been used specific phospho-AKT. The assay is based on a Sandwich ELISA kit (PathScan™ Phospho-Akt1 (Ser473); Cell Signaling, USA; #7160). The ELISA Kit detects endogenous levels of phosphorylated Akt protein. A phospho-Akt (Ser473) antibody (Cell Signaling, USA; #9271) has been coated onto the microwells. After incubation with cell lysates, the coated antibody captures the phosphorylated Akt protein. Following extensive washing, Akt1 monoclonal antibody (Cell Signaling, USA; #2967) is added to detect the captured phospho-Akt1 protein. HRP-linked anti-mouse antibody (HRP: horseradish peroxidase; Cell Signaling, USA; #7076) is then used to recognize the bound detection antibody. HRP substrate (=3,3′,5,5′-tetramethylbenzidine (TMB); Cell Signaling, USA; #7160) is added to develop colour. The magnitude of optical density for this developed color is proportional to the quantity of phosphorylated Akt protein.
MCF7 cells (ATCC HTB-22) are seeded into 96 well fate bottom plates at a density of 10000 cells/well. 24 hours after seeding, the cells are serum starved using low-serum medium (IMEM media including 0.1% charcoal treated FCS (FCS: fetal calf serum)). After 24 hours 1 μl each of the compound dilutions (test compounds were dissolved as 10 mM solutions in dimethylsulfoxide (DMSO) and subsequently diluted) are added into each well of the 96 well plates and incubated for 48 h at 37° C. in a humidified atmosphere containing 5% CO2. To stimulate Akt phosphorylation, β-Heregulin (20 ng/ml β-HRG) is added in parallel to the compounds. Wells containing unstimulated control cells (no β-Heregulin stimulation) are incubated with or without the diluted compound. Wells containing untreated control cells (no compound) are filled with medium containing 0.5% v:v DMSO and are or are not stimulated with β-Heregulin.
Cells are harvested and lysed with brief sonification in 1× cell lysis buffer (20 mM Tris (pH7.5), 150 mM NaCl, 1 mM ethylene diaminetetraacetate (EDTA), 1 mM ethylene glycolbis(2-aminoethyl)-N,N,N′,N′-tetraacetic acid (EGTA), 1 vol % Triton X-100, 2.5 mM sodium pyrophosphate, 1 mM β-glycerolphosphate, 1 mM Na3VO4, 1 μg/ml leupeptin). The lysate is centrifuged for 10 min. at 4° C. and the supernatant is transferred to a new tube. 100 μl of sample diluent (0.1 vol % Tween-20, 0.1 vol % sodium azide in phosphate buffered saline (PBS)) are added to a microcentrifuge tube and 100 μl of cell lysate are transferred into the tube and vortexed. 100 μl of each diluted cell lysate are added to the appropriate ELISA well, and incubated overnight at 4° C. The plates are washed 4 times with 1× wash buffer (1 vol % tween-20, 0.33 vol % thymol, in PBS). Next 100 μl of detection antibody (Akt1 (2H10) monoclonal detection antibody; Cell Signaling, USA; #2967) are added to each well and incubation continued for 1 h at 37° C. The washing procedure is repeated between each step. 100 μl of secondary antibody (anti-mouse IgG HRP-linked antibody; Cell Signaling, USA; #7076) are added to each well and incubated for 30 min. at 37° C. Than, 100 μl of TMB substrate (0.05% 3,3′,5,5′ tetramethylbenzidine, 0.1% hydrogen peroxide, complex polypeptides in a buffered solution; Cell Signaling, USA; #7160) are added to each well and incubated for 30 min. at 25° C. Finally 100 μl of STOP solution (0.05 vol % α and β unsaturated carbonyl compound) are added to each well and the plate are shaked gently. The absorbance is measured at λ=450 nm (Wallac Victor2; Perkin Elmer, USA) within 30 min. after adding the STOP solution. The analysis of the data is performed using a statistical program (Excel; Microsoft, USA). Preferred compounds show an inhibitory activity towards Akt phosphorylation below 10 μM.
In general terms: An ELISA detects its analyte on a solid surface through an enzyme-linked reagent.

A further assay deals with phospho-GSK3 (Ser9). Nature of the assay: Cellular pGSK3 assay (phospho-GSK3 ELISA). Format: cell-based. The following applies: Homo sapiens, MCF7 cells, 48 h incubation, read-out: Cellular pGSK3 pathway assay. As to the method: In order to study the cellular activity of the compounds according to the present invention, an ELISA-based assay has been established for the phosphorylated protein glycogen synthetase kinase 3 (GSK3). The assay is based on a solid phase sandwich ELISA that detects endogenous levels of phosphorylated GSK3 using a phospho-GSK3 (Ser9) specific antibody (BioSource International, Inc.; Catalog #KHO0461). After incubation with cell lysates, the coated antibody captures the phosphorylated GSK3 protein. Following extensive washing, GSK3 polyclonal antibody is added to detect the captured phospho-GSK3 protein. Secondary antibody (anti-rabbit IgG-HRP) is then used to recognize the bound detection antibody. After the second incubation and washing to remove all the excess anti-rabbit IgG-HRP, a substrate solution is added, which is acted upon by the bound enzyme to produce color. The intensity of this colored product is directly proportional to the concentration of GSK-3β [pS9] present in the original specimen. MCF7 cells (ATCC HTB-22) were seeded into 96 well fate bottom plates at a density of 10000 cells/well. After 24 h 1 μl each of the compound dilutions (test compounds were dissolved as 10 mM solutions in dimethylsulfoxide (DMSO) and subsequently diluted) were added into each well of the 96 well plates and incubated for 48 h at 37° C. in a humidified atmosphere containing 5% CO2. Cells were harvested and lysed in cell extraction buffer (10 mM Tris, pH 7.4, 100 mM NaCl, 1 mM EDTA, 1 mM EGTA, 1 mM NaF, 20 mM Na4P2O7, 2 mM Na3VO4, 1% Triton X-100, 10 vol % glycerol, 0.1 vol % SDS, 0.5 vol % deoxycholate, 1 mM phenylmethylsulfonylfluoride (PMSF)). The lysate were centrifuged for 10 min. at 4° C. and the supernatant were transferred to a new tube. 50 μl of sample diluent (standard diluent buffer, Biosource) were added and 100 μl of cell lysate transferred into the tube and vortexed. 100 μl of each diluted cell lysate were added to the appropriate ELISA well plate and incubated for 3 h at room temperature. The plates were washed 4 times with 1× wash buffer (Biosource). 50 μl of detection antibody (GSK3 (Ser9) detection antibody; BioSource) were added to each well and incubated for 30 min. at room temperature. The washing procedure was repeated between each step. 100 μl of HRP-linked secondary antibody (anti-mouse IgG HRP-linked antibody) were added to each well and incubated for 30 min. at room temperature. 100 μl of TMB substrate (0.05 vol % 3,3′,5,5′ tetramethylbenzidine, 0.1 vol % hydrogen peroxide, complex polypeptides in a buffered solution; Biosource) were added to each well and incubated for 30 min. at room temperature. Finally 100 μl of Stop solution (0.05 vol % α and β unsaturated carbonyl compound) were added to each well and the plate were shaked gently for a few seconds. The absorbance was measured at λ=450 nm (Wallac Victor2; Perkin Elmer, USA) within 30 min. after adding the stop solution.
The analysis of the data was performed using a statistical program (Excel; Microsoft, USA) and the IC50 of pGSK3 inhibition was determined.

For `CC(c1ccc(-c2nc3nccn3cc2-c2ccccc2)cc1)N1CCC(c2n[nH]c(-c3ccccn3)n2)CC1` (racemic) [Example 23, 6-phenyl-7-(4-{1-[4-(5-pyridin-2-yl-1H-1,2,4-triazol-3-yl)piperidin-1-yl]ethyl}phenyl)imidazo[1,2-a]pyrimidine], the IC50 was under 1000 nM in the assay on phospho-Akt (Ser473) and over 10000 nM in the assay on phospho-GSK3 (Ser9).

For `Fc1cnc2nc(-c3ccc(CN4CCC(c5n[nH]c(-c6cnccn6)n5)CC4)cc3)c(-c3ccccc3)cn12` [Example 24, 3-fluoro-6-phenyl-7-(4-{[4-(5-pyrazin-2-yl-1,2,4-triazol-3-yl)piperidin-1-yl]methyl}phenyl)imidazo[1,2-a]pyrimidine], the figures for the IC50 in the assay with phospho-Akt (Ser473) and in the assay on phospho-GSK3 (Ser9) were under 1000 nM and 1000 to 10000 nM, respectively.

On to `Fc1cnc2nc(-c3ccc(CN4CCC(c5n[nH]c(-c6ncccn6)n5)CC4)cc3)c(-c3ccccc3)cn12` [Example 25, 3-fluoro-6-phenyl-7-(4-{[4-(5-pyrimidin-2-yl-1H-1,2,4-triazol-3-yl)piperidin-1-yl]methyl}phenyl)imidazo[1,2-a]pyrimidine], for which the IC50 in the assay with phospho-Akt (Ser473) is under 1000 nM; in the assay on phospho-GSK3 (Ser9), over 10000 nM.

With `Clc1cnn2cc(-c3ccccc3)c(-c3ccc(CN4CCC(c5n[nH]c(-c6ccccn6)n5)CC4)cc3)nc12` [Example 30, 3-Chloro-6-phenyl-5-(4-{[4-(5-pyridin-2-yl-1H-1,2,4-triazol-3-yl)piperidin-1-yl]methyl}phenyl)pyrazolo[1,5-a]pyrimidine], the IC50 with phospho-Akt (Ser473) and in the assay on phospho-GSK3 (Ser9) was under 1000 nM in each case.

For the molecule `Brc1cnn2cc(-c3ccccc3)c(-c3ccc(CN4CCC(c5n[nH]c(-c6ccccn6)n5)CC4)cc3)nc12` [Example 31, 3-Bromo-6-phenyl-5-(4-{[4-(5-pyridin-2-yl-1H-1,2,4-triazol-3-yl)piperidin-1-yl]methyl}phenyl)pyrazolo[1,5-a]pyrimidine], the IC50 in the assay on phospho-Akt (Ser473) and in the assay with phospho-GSK3 (Ser9) was under 1000 nM throughout.

As for `N#Cc1cnn2cc(-c3ccccc3)c(-c3ccc(CN4CCC(c5n[nH]c(-c6ccccn6)n5)CC4)cc3)nc12` [Example 32, 6-Phenyl-5-(4-{[4-(5-pyridin-2-yl-1H-1,2,4-triazol-3-yl)piperidin-1-yl]methyl}phenyl)pyrazolo[1,5-a]pyrimidine-3-carbonitrile], the IC50 in the assay with phospho-Akt (Ser473) and with phospho-GSK3 (Ser9) was under 1000 nM in each case.

For `C#Cc1cnn2cc(-c3ccccc3)c(-c3ccc(CN4CCC(c5n[nH]c(-c6ccccn6)n5)CC4)cc3)nc12` [Example 33, 3-Ethynyl-6-phenyl-5-(4-{[4-(5-pyridin-2-yl-1H-1,2,4-triazol-3-yl)piperidin-1-yl]methyl}phenyl)pyrazolo[1,5-a]pyrimidine], the IC50 in the assay with phospho-Akt (Ser473) is under 1000 nM; in the assay with phospho-GSK3 (Ser9), 1000 to 10000 nM.

As to `CCc1cnn2cc(-c3ccccc3)c(-c3ccc(CN4CCC(c5n[nH]c(-c6ccccn6)n5)CC4)cc3)nc12` [Example 34, 3-Ethyl-6-phenyl-5-(4-{[4-(5-pyridin-2-yl-1H-1,2,4-triazol-3-yl)piperidin-1-yl]methyl}phenyl)pyrazolo[1,5-a]pyrimidine], the IC50 was under 1000 nM with phospho-Akt (Ser473) and 1000 to 10000 nM in the assay with phospho-GSK3 (Ser9).

As for `Cc1ccnc(-c2nc(C3CCN(Cc4ccc(-c5nc6nccn6cc5-c5ccccc5)cc4)CC3)n[nH]2)c1` [Example 35, 7-[4-({4-[5-(4-Methylpyridin-2-yl)-1H-1,2,4-triazol-3-yl]piperidin-1-yl}methyl)phenyl]-6-phenylimidazo[1,2-a]pyrimidine], the IC50 in the assay with phospho-Akt (Ser473) was under 1000 nM; with phospho-GSK3 (Ser9), 1000 to 10000 nM.

`Cc1cccc(-c2nc(C3CCN(Cc4ccc(-c5nc6nccn6cc5-c5ccccc5)cc4)CC3)n[nH]2)n1` [Example 36, 7-[4-({4-[5-(6-Methylpyridin-2-yl)-1H-1,2,4-triazol-3-yl]piperidin-1-yl}methyl)phenyl]-6-phenylimidazo[1,2-a]pyrimidine]: the IC50 in the assay on phospho-Akt (Ser473) and in the assay on phospho-GSK3 (Ser9) was under 1000 nM throughout.

Consider `CCc1nc2nc(-c3ccc(CN4CCC(c5n[nH]c(-c6ccccn6)n5)CC4)cc3)c(-c3ccccc3)cn2n1` [Example 40, 2-Ethyl-6-phenyl-5-(4-{[4-(5-pyridin-2-yl-1H-1,2,4-triazol-3-yl)piperidin-1-yl]methyl}phenyl)[1,2,4]triazolo[1,5-a]pyrimidine], for which the IC50 in the assay with phospho-Akt (Ser473) and with phospho-GSK3 (Ser9) was under 1000 nM in each case.

The record behind these values is US8614218B2, “Fused bicyclic pyrimidines” (Bayer Intellectual Property GmbH, priority 2007, dated 2013).
